The subject of the test is RS411 cells. Briefly: Cell Viability CTG Assay (CellTiter Glo) in RS411 cells. The test is classed as cell-based. As to conditions: Homo sapiens. As to the method: Example 23. Cell Viability CTG Assay
Day 0: Compounds or DMSO 60 nL were stamped to the cell plate as the platemap. RS411 cells were centrifuged at 800 rpm for 5 min, suspended with culture medium, and counted with Countess (Invitrogen). The cell density was adjusted to the recommend information. 30 μL of cell solution (1000 cells/well) was added to the assay plate as the platemap and 30 uL of media was added to column 2 and column 23 as the platemap. The plate was spun down briefly. The final concentration of the compounds started at 10 μM (3 fold dilution and 11 doses) and final DMSO concentration was 0.2%. The plate was spun down briefly and incubated at 37° C., 5% CO2 for 1-4 days.
30 μL CellTiter Glo reagent was added to each well and the plate was centrifuged at 1000 rpm for 30 sec. The plate was shaken for 1 min and centrifuged at 1000 rpm for 30 sec. The plate was incubated at RT for 10 min to stabilize the luminescent signal and the luminescence was read by EnVision.
The letter codes for IC50 indicate the concentration of compound required to affect 50% of cells: A (<0.05 μM), B (0.05-0.1 μM), C (0.1-0.5 μM), D (0.5-1.0 μM), and E (>1.0 μM).
For orientation: ATP-based viability assays read luminescence as a measure of living cells.

Where only a bound is given, the exact number is not on record here.

Take `CN1[C@@H](C(=O)NC23CCC(C(=O)N4CCC(C#Cc5ccc6c(c5)n(C)c(=O)n6C5CCC(=O)NC5=O)CC4)(CC2)CC3)[C@H](c2cccc(Cl)c2F)[C@]2(C(=O)Nc3cc(Cl)ccc32)C12CCCCC2` (stereo partly drawn) [I-130, (3′R,4'S,5′R)-6″-chloro-4′-(3-chloro-2-fluorophenyl)-N-(4-(4-((1-(2,6-dioxopiperidin-3-yl)-3-methyl-2-oxo-2,3-dihydro-1H-benzo[d]imidazol-5-yl)ethynyl)piperidine-1-carbonyl)bicyclo[2.2.2]octan-1-yl)-1′-methyl-2″-oxodispiro[cyclohexane-1,2′-pyrrolidine-3′,3″-indoline]-5′-carboxamide]: where the note is “RS4-11, 24 h, duration 1 day”, the IC50 was below 50 nM.
On the same count and under the same terms, to `Cn1c(=O)n(C2CCC(=O)NC2=O)c2ccc(C#CCCCNC(=O)[C@H]3CC[C@H](NC(=O)[C@@H]4NC5(CCCCC5)[C@@]5(C(=O)Nc6cc(Cl)ccc65)[C@H]4c4cccc(Cl)c4F)CC3)cc21` (stereo partly shown) [I-82] belongs below 50 nM.
Regarding `Cc1ncsc1-c1ccc(CNC(=O)[C@@H]2C[C@@H](O)CN2C(=O)[C@@H](NC(=O)CCCNC(=O)c2ccc(NC(=O)[C@@H]3NC4(CCCCC4)[C@@]4(C(=O)Nc5cc(Cl)ccc54)[C@H]3c3cccc(Cl)c3F)cc2)C(C)(C)C)cc1` [I-13], for the setting “RS4-11, 96 h, duration 4 days”, the IC50 lay within 500 to 1000 nM.
Where the note is “RS4-11, 24 h, duration 1 day”, `CC(C)(C)C[C@@H]1N[C@@H](C(=O)N[C@H]2CC[C@H](CNCCCC#Cc3ccc4c(N5CCC(=O)NC5=O)cncc4c3)CC2)[C@H](c2cccc(Cl)c2F)[C@@]1(C#N)c1ccc(Cl)cc1F` [I-199] returned an IC50 above 1000 nM.
On the same count and under the same terms, to `Cn1c(=O)n(C2CCC(=O)NC2=O)c2cccc(C#CCCCNC(=O)c3ccc(NC(=O)[C@@H]4NC5(CCCCC5)[C@@]5(C(=O)Nc6cc(Cl)ccc65)[C@H]4c4cccc(Cl)c4F)cc3)c21` (stereo partly shown) [I-51] belongs below 50 nM; to `Cn1c(=O)n(C2CCC(=O)NC2=O)c2cccc(C3CCN(C[C@H]4CC[C@H](NC(=O)[C@@H]5NC6(CCC(C)(C)CC6)[C@@]6(C(=O)Nc7cc(Cl)ccc76)[C@H]5c5cccc(Cl)c5F)CC4)CC3)c21` (stereo partly shown) [I-103], below 50 nM.
On the same count and under the same terms, with `CC(C)[C@@H](CS(=O)(=O)C(C)C)N1C(=O)[C@@](C)(CC(=O)N[C@H]2CC[C@H](CN3CCC(C#Cc4ccn5c(N6CCC(=O)NC6=O)cnc5c4)CC3)CC2)C[C@H](c2cccc(Cl)c2)[C@H]1c1ccc(Cl)cc1` [I-166] the figure was 500 to 1000 nM; with `O=C1CCN(c2cnc3c(C#CC4CCN(C[C@H]5CC[C@H](NC(=O)[C@@H]6NC7(CCCCC7)[C@@]7(C(=O)Nc8cc(Cl)ccc87)[C@H]6c6cccc(Cl)c6F)CC5)CC4)cccn23)C(=O)N1` [I-150], below 50 nM.
`Cc1ncsc1-c1ccc(CNC(=O)[C@@H]2C[C@@H](O)CN2C(=O)[C@@H](NC(=O)CCCNC(=O)C[C@@]2(C)C[C@H](c3cccc(Cl)c3)[C@@H](c3ccc(Cl)cc3)N([C@H](CS(=O)(=O)C(C)C)C(C)C)C2=O)C(C)(C)C)cc1` [I-11]: the IC50 (RS4-11, 96 h, duration 4 days) was above 1000 nM.
Turning to `Cn1c(=O)n(C2CCC(=O)NC2=O)c2ccc(C#CC3CCN(C(=O)[C@H]4CC[C@H](NC(=O)[C@@H]5NC6(CCC(C)(C)CC6)[C@@]6(C(=O)Nc7cc(Cl)ccc76)[C@H]5c5cccc(Cl)c5F)CC4)CC3)cc21` (stereo partly shown) [I-71], the IC50 (RS4-11, 24 h, duration 1 day) is below 50 nM.
On the same count and under the same terms, with `O=C1CCC(n2c(=O)oc3c(CCCOC4CCN(C(=O)c5ccc(NC(=O)[C@@H]6NC7(CCCCC7)[C@@]7(C(=O)Nc8cc(Cl)ccc87)[C@H]6c6cccc(Cl)c6F)cc5)CC4)cccc32)C(=O)N1` (stereo partly shown) [I-54] the figure was 50 to 100 nM.
Still for that read-out and setting: with `Cn1c(=O)n(C2CCC(=O)NC2=O)c2cccc(C#CC3CCN(C[C@H]4CC[C@H](NC(=O)[C@@H]5NC6(CCC(C)(C)CC6)[C@@]6(C(=O)Nc7cc(Cl)ccc76)[C@H]5c5ccnc(Cl)c5F)CC4)CC3)c21` (stereo partly shown) [I-148] the figure was below 50 nM.
On to `CC(C)[C@@H](CS(=O)(=O)C(C)C)N1C(=O)[C@@](C)(CC(=O)Nc2ccc(C(=O)NCCOCCOCCOCCNc3cccc4c3C(=O)N(C3CCC(=O)NC3=O)C4=O)cc2)C[C@H](c2cccc(Cl)c2)[C@H]1c1ccc(Cl)cc1` (stereo partly drawn) [I-6, 4-[[2-[(3R,5R,6S)-5-(3-chlorophenyl)-6-(4-chlorophenyl)-1-[(1S)-1-(isopropylsulfonylmethyl)-2-methyl-propyl]-3-methyl-2-oxo-3-piperidyl]acetyl]amino]-N-[2-[2-[2-[2-[[2-(2,6-dioxo-3-piperidyl)-1,3-dioxo-isoindolin-4-yl]amino]ethoxy]ethoxy]ethoxy]ethyl]benzamide], for which the IC50 (RS4-11, 96 h, duration 4 days) was in the range of 100 to 500 nM.
For the setting “RS4-11, 24 h, duration 1 day”, `Cn1c(=O)n(C2CCC(=O)NC2=O)c2cccc(/C=C/C3CCN(C[C@H]4CC[C@H](CNC(=O)[C@@H]5NC6(CCCCC6)[C@@]6(C(=O)Nc7cc(Cl)ccc76)[C@H]5c5cccc(Cl)c5F)CC4)CC3)c21` (stereo partly shown) [I-118] showed an IC50 of 50 to 100 nM.
The same measure, in the same setting: to `COc1cc2c(cc1OC(C)C)C(c1ccc(Cl)cc1)N(c1ccc(N(C)C(=O)C3CCN(CCCCCCc4ccc5c(c4)n(C)c(=O)n5C4CCC(=O)NC4=O)CC3)cc1)C(=O)C2` (stereo not shown) [I-209] belongs above 1000 nM.
Still for that read-out and setting: to `Cn1c(=O)n(C2CCC(=O)NC2=O)c2cccc(C#CCNC(=O)c3ccc(NC(=O)[C@@H]4NC5(CCCCC5)[C@@]5(C(=O)Nc6cc(Cl)ccc65)[C@H]4c4cccc(Cl)c4F)cc3)c21` (stereo partly shown) [I-46] belongs below 50 nM; to `CN(CCCCCc1ccc2c(c1)n(C)c(=O)n2C1CCC(=O)NC1=O)Cc1ccc(NC(=O)[C@@H]2NC3(CCCCC3)[C@@]3(C(=O)Nc4cc(Cl)ccc43)[C@H]2c2cccc(Cl)c2F)cc1` (stereo partly shown) [I-99], below 50 nM; to `COc1cc2c(cc1OC(C)C)[C@H](c1ccc(Cl)cc1)N(c1ccc(N(C)CC3CCN(CCCCCCc4ccc5c(c4)n(C)c(=O)n5C4CCC(=O)NC4=O)CC3)cc1)C(=O)C2` (stereo partly shown) [I-201], below 50 nM.
For the setting “RS4-11, 96 h, duration 4 days”, `COc1cc(C(=O)NCCCC(=O)N[C@H](C(=O)N2C[C@H](O)C[C@H]2C(=O)NCc2ccc(-c3scnc3C)cc2)C(C)(C)C)ccc1NC(=O)[C@@H]1N[C@@H](CC(C)(C)C)[C@](C#N)(c2ccc(Cl)cc2F)[C@H]1c1cccc(Cl)c1F` [I-20] showed an IC50 of 100 to 500 nM.
The compound `COc1cc2c(cc1OC(C)C)C(c1ccc(Cl)cc1)N(c1ccc(N(C)CC3CCN(CCCCCCc4ccc5c(c4)n(C)c(=O)n5C4CCC(=O)NC4=O)CC3)cc1)C(=O)C2` (stereo not shown) [I-86] returned an IC50 (RS4-11, 24 h, duration 1 day) below 50 nM.
Turning to `O=C1CCC(N2Cc3c(C#CC4CCN(C(=O)[C@H]5CC[C@H](NC(=O)[C@@H]6NC7(CCCCC7)[C@@]7(C(=O)Nc8cc(Cl)ccc87)[C@H]6c6cccc(Cl)c6F)CC5)CC4)cccc3C2=O)C(=O)N1` (stereo partly shown) [I-134], the IC50 (RS4-11, 24 h, duration 1 day) was below 50 nM.
Still for that read-out and setting: to `Cn1c(=O)n(C2CCC(=O)NC2=O)c2ccc(N3CCN(C[C@H]4CC[C@H](NC(=O)[C@@H]5NC6(CCCCC6)[C@@]6(C(=O)Nc7cc(Cl)ccc76)[C@H]5c5cccc(Cl)c5F)CC4)CC3)cc21` (stereo partly shown) [I-207] belongs below 50 nM.
Still for that read-out and setting: with `Cn1c(=O)n(C2CCC(=O)NC2=O)c2ccc(CCCCCNC(=O)[C@@H]3CC[C@@H](NC(=O)[C@@H]4NC5(CCC(C)(C)CC5)[C@@]5(C(=O)Nc6cc(Cl)ccc65)[C@H]4c4cccc(Cl)c4F)CO3)cc21` (stereo partly shown) [I-98] the figure was below 50 nM; with `Cn1c(=O)n(C2CCC(=O)NC2=O)c2cccc(C3CCN(C(=O)c4ccc(NC(=O)[C@@H]5NC6(CCCCC6)[C@@]6(C(=O)Nc7cc(Cl)ccc76)[C@H]5c5cccc(Cl)c5F)cc4)CC3)c21` (stereo partly shown) [I-58], below 50 nM.
For the compound `COc1cc(C(=O)NCCCC#Cc2cccc3c2CN(C2CCC(=O)NC2=O)C3=O)ccc1NC(=O)[C@@H]1N[C@@H](CC(C)(C)C)[C@](C#N)(c2ccc(Cl)cc2F)[C@H]1c1cccc(Cl)c1F` (stereo partly shown) [I-31], the IC50 (RS4-11, 96 h, duration 4 days) was below 50 nM.
In the case of `Cn1c(=O)n(C2CCC(=O)NC2=O)c2ccc(CN3CCC(OC4CCN(C[C@H]5CC[C@H](NC(=O)[C@@H]6NC7(CCCCC7)[C@@]7(C(=O)Nc8cc(Cl)ccc87)[C@H]6c6cccc(Cl)c6F)CC5)CC4)CC3)cc21` (stereo partly shown) [I-117], the half-maximal inhibitory concentration (IC50) (RS4-11, 24 h, duration 1 day) was below 50 nM.
Turning to `O=C1CCC(n2c(=O)oc3cc(CCCOCCOCCNC(=O)c4ccc(NC(=O)[C@@H]5NC6(CCCCC6)[C@@]6(C(=O)Nc7cc(Cl)ccc76)[C@H]5c5cccc(Cl)c5F)cc4)ccc32)C(=O)N1` (stereo partly shown) [I-57], under “RS4-11, 24 h, duration 1 day”, the IC50 is below 50 nM.
Same read-out and setting: to `Cn1c(=O)n(C2CCC(=O)NC2=O)c2cccc(CCC3CC4(CCN(C(=O)c5ccc(NC(=O)[C@@H]6NC7(CCCCC7)[C@@]7(C(=O)Nc8cc(Cl)ccc87)[C@H]6c6cccc(Cl)c6F)cc5)CC4)C3)c21` (stereo partly shown) [I-53] belongs 50 to 100 nM; to `CCN1[C@@H](C(=O)NC23CCC(CN(C)CCCCCc4ccc5c(c4)n(C)c(=O)n5C4CCC(=O)NC4=O)(CC2)CC3)[C@H](c2cccc(Cl)c2F)[C@]2(C(=O)Nc3cc(Cl)ccc32)C12CCCCC2` (stereo partly drawn) [I-131, (3′R,4'S,5′R)-6″-chloro-4′-(3-chloro-2-fluorophenyl)-N-(4-(((5-(1-(2,6-dioxopiperidin-3-yl)-3-methyl-2-oxo-2,3-dihydro-1H-benzo[d]imidazol-5-yl)pentyl)(methyl)amino)methyl)bicyclo[2.2.2]octan-1-yl)-1′-ethyl-2″-oxodispiro[cyclohexane-1,2′-pyrrolidine-3′,3″-indoline]-5′-carboxamide], 50 to 100 nM; to `CC1(C)CCC2(CC1)N[C@@H](C(=O)N[C@H]1CC[C@H](CN3CCC(C#Cc4cccn5c(N6CCC(=O)NC6=O)cnc45)CC3)CC1)[C@H](c1ccnc(Cl)c1F)[C@]21C(=O)Nc2cc(Cl)ccc21` [I-155], below 50 nM.
Same read-out and setting: with `CCCCCC1N(c2ccc(C(=O)O)cc2OC)C(=O)[C@H]2[C@H](c3cccc(Cl)c3F)[C@@](C#N)(c3ccc(Cl)cc3F)[C@H](CC(C)(C)C)N12` (stereo partly drawn) [I-91, 4-[(5S,6R,7S,7aR)-7-(3-chloro-2-fluoro-phenyl)-6-(4-chloro-2-fluoro-phenyl)-6-cyano-5-(2,2-dimethylpropyl)-1-oxo-3-pentyl-3,5,7,7a-tetrahydropyrrolo[1,2-c]imidazol-2-yl]-3-methoxy-benzoic acid] the figure was above 1000 nM.

What is called IC50 is the point on the concentration scale where inhibition reaches its midpoint.

(Values after patent US11932624B2, “MDM2 degraders and uses thereof” (Kymera Therapeutics, Inc., priority 2020, dated 2024).)
